According to patent EP0908457B1, “3-(1,2-benzisothiazol- and isoxazol-5-Y1)-2,4(1H,3H)-pyrimidinedione or thione and 3-(1,2-benzisothiazol- and isoxazol-5-y1)-4(3H)-pyrimidinone or thione herbicidal agents” (BASF AKTIENGESELLSCHAFT, priority 1997, dated 1999):

What was measured:
[1] = test system: Oryza sativa, (L.) Tebonnet; assay: Rice tolerance to post-transplant applications under flooded paddy conditions (Example 187), ORYSAT (Rice, Tebonnet); details: rated three to four weeks after treatment
Cyperus iria = assay: Preemergence weed control under flooded paddy conditions, CYPIR (Rice Flatsedge); assay type: in vivo; details: preemergence, flooded paddy, rated three to four weeks after treatment; as to herbicidal effect rating, CYPIR: meaning of each grade not given here
[2] = test system: Echinochloa oryzoides (Ard.) Fritsch.; assay: Preemergence weed control under flooded paddy conditions, ECHORC (Watergrass (Calif.)); assay type: in vivo; details: preemergence, flooded paddy, rated three to four weeks after treatment; as to herbicidal effect rating, ECHORC: meaning of each grade not given here
[3] = test system: Monochoria vaginalis, Presl.; assay: Preemergence weed control under flooded paddy conditions, MOOVA (Monochoria); assay type: in vivo; details: preemergence, flooded paddy, rated three to four weeks after treatment; as to herbicidal effect rating, MOOVA: meaning of each grade not given here
[4] = test system: Cyperus serotinus, Rottb.; assay: Preemergence weed control under flooded paddy conditions, CYPSE (Flatsedge); assay type: in vivo; details: preemergence, rated three to four weeks after treatment; as to herbicidal effect rating, CYPSE: meaning of each grade not given here
Sagittaria pygmaea, L. = assay: Preemergence weed control under flooded paddy conditions, SAGPY (Arrowhead (Pygmaea)); assay type: in vivo; details: preemergence, flooded paddy, rated three to four weeks after treatment; as to herbicidal effect rating, SAGPY: meaning of each grade not given here

Compound: CC(C)N(C(C)C)S(=O)(=O)NC(=O)COc1ccccc1-c1nsc2ccc(-n3c(=O)cc(C(F)(F)F)n(C)c3=O)cc12 [Example 512, Acetamide, 2-{o-{5-[3,6-dihydro-3-methyl-2,6-dioxo-4-(trifluoromethyl)-1(2H)-pyrimidinyl]-1,2-benzisothiazol-3-yl}phenoxy}-N-(diisopropyl-sulfamoyl)-]
- ORYSAT herbicidal rating (rice tolerance) ([1]; 0.0320 kg/ha): 0.0
- ORYSAT herbicidal rating (rice tolerance) ([1]; 0.0620 kg/ha): 0.0
- ORYSAT herbicidal rating (rice tolerance) ([1]; 0.1250 kg/ha): 1.0
- ORYSAT herbicidal rating (rice tolerance) ([1]; 0.2500 kg/ha): 2.0
- CYPIR herbicidal rating (Cyperus iria; 0.0320 kg/ha): 0.0
- CYPIR herbicidal rating (Cyperus iria; 0.0620 kg/ha): 2.0
- CYPIR herbicidal rating (Cyperus iria; 0.1250 kg/ha): 5.0
- CYPIR herbicidal rating (Cyperus iria; 0.2500 kg/ha): 5.0
- ECHORC herbicidal rating ([2]; 0.0320 kg/ha): 7.0
- ECHORC herbicidal rating ([2]; 0.0620 kg/ha): 7.0
- ECHORC herbicidal rating ([2]; 0.1250 kg/ha): 9.0
- ECHORC herbicidal rating ([2]; 0.2500 kg/ha): 9.0
- MOOVA herbicidal rating ([3]; 0.0320 kg/ha): 9.0
- MOOVA herbicidal rating ([3]; 0.0620 kg/ha): 9.0
- MOOVA herbicidal rating ([3]; 0.1250 kg/ha): 9.0
- MOOVA herbicidal rating ([3]; 0.2500 kg/ha): 9.0
- CYPSE herbicidal rating ([4]; 0.0320 kg/ha): 0.0
- CYPSE herbicidal rating ([4]; 0.0620 kg/ha): 0.0
- CYPSE herbicidal rating ([4]; 0.1250 kg/ha): 0.0
- CYPSE herbicidal rating ([4]; 0.2500 kg/ha): 0.0
- SAGPY herbicidal rating (Sagittaria pygmaea, L.; 0.0320 kg/ha): 0.0
- SAGPY herbicidal rating (Sagittaria pygmaea, L.; 0.0620 kg/ha): 0.0
- SAGPY herbicidal rating (Sagittaria pygmaea, L.; 0.1250 kg/ha): 2.0
- SAGPY herbicidal rating (Sagittaria pygmaea, L.; 0.2500 kg/ha): 4.0

Compound: Cc1ccc(OCC(=O)OC(C)(C)C)c(-c2noc3ccc(-n4c(=O)cc(C(F)(F)F)n(C)c4=O)c(Cl)c23)c1 [Example 265, Acetic acid, {{2-{4-chloro-5-[3,6-dihydro-3-methyl-2,6-dioxo-4-(trifluoromethyl)-1(2H)-pyrimidinyl]-1,2-benzisoxazol-3-yl}-p-tolyl}oxy}-, tert-butyl ester]
- ORYSAT herbicidal effect rating ([1]; Rate 0.0320 kg/ha): 0.0
- ORYSAT herbicidal effect rating ([1]; Rate 0.0620 kg/ha): 0.0
- ORYSAT herbicidal effect rating ([1]; Rate 0.1250 kg/ha): 0.0
- ORYSAT herbicidal effect rating ([1]; Rate 0.2500 kg/ha): 0.0
- CYPIR herbicidal effect rating (Cyperus iria; Rate 0.0320 kg/ha): 0.0
- CYPIR herbicidal effect rating (Cyperus iria; Rate 0.0620 kg/ha): 0.0
- CYPIR herbicidal effect rating (Cyperus iria; Rate 0.1250 kg/ha): 0.0
- CYPIR herbicidal effect rating (Cyperus iria; Rate 0.2500 kg/ha): 3.0
- ECHORC herbicidal effect rating ([2]; Rate 0.0320 kg/ha): 0.0
- ECHORC herbicidal effect rating ([2]; Rate 0.0620 kg/ha): 0.0
- ECHORC herbicidal effect rating ([2]; Rate 0.1250 kg/ha): 0.0
- ECHORC herbicidal effect rating ([2]; Rate 0.2500 kg/ha): 0.0
- MOOVA herbicidal effect rating ([3]; Rate 0.0320 kg/ha): 9.0
- MOOVA herbicidal effect rating ([3]; Rate 0.0620 kg/ha): 9.0
- MOOVA herbicidal effect rating ([3]; Rate 0.1250 kg/ha): 9.0
- MOOVA herbicidal effect rating ([3]; Rate 0.2500 kg/ha): 9.0
- CYPSE herbicidal effect rating ([4]; Rate 0.0320 kg/ha): 0.0
- CYPSE herbicidal effect rating ([4]; Rate 0.0620 kg/ha): 0.0
- CYPSE herbicidal effect rating ([4]; Rate 0.1250 kg/ha): 0.0
- CYPSE herbicidal effect rating ([4]; Rate 0.2500 kg/ha): 0.0
- SAGPY herbicidal effect rating (Sagittaria pygmaea, L.; Rate 0.0320 kg/ha): 0.0
- SAGPY herbicidal effect rating (Sagittaria pygmaea, L.; Rate 0.0620 kg/ha): 0.0
- SAGPY herbicidal effect rating (Sagittaria pygmaea, L.; Rate 0.1250 kg/ha): 0.0
- SAGPY herbicidal effect rating (Sagittaria pygmaea, L.; Rate 0.2500 kg/ha): 0.0

Compound: COc1ccc(C(C)C)cc1-c1nsc2ccc(-n3c(=O)cc(C(F)(F)F)n(C)c3=O)cc12 [Example 46, 3-[3-(5-Isopropyl-2-methoxyphenyl)-1,2-benzisothiazol-5-yl]-1-methyl-6-(trifluoromethyl)-2,4(1H,3H)-pyrimidinedione]
- herbicidal effect rating, ORYSAT (rice tolerance) ([1]; 0.0313 kg/ha): 1.0
- herbicidal effect rating, ORYSAT (rice tolerance) ([1]; 0.0625 kg/ha): 1.0
- herbicidal effect rating, ORYSAT (rice tolerance) ([1]; 0.1250 kg/ha): 2.0
- herbicidal effect rating, ORYSAT (rice tolerance) ([1]; 0.2500 kg/ha): 3.0
- herbicidal effect rating, CYPIR (Cyperus iria; 0.0313 kg/ha): 2.0
- herbicidal effect rating, CYPIR (Cyperus iria; 0.0625 kg/ha): 6.0
- herbicidal effect rating, CYPIR (Cyperus iria; 0.1250 kg/ha): 9.0
- herbicidal effect rating, CYPIR (Cyperus iria; 0.2500 kg/ha): 9.0
- herbicidal effect rating, ECHORC ([2]; 0.0313 kg/ha): 9.0
- herbicidal effect rating, ECHORC ([2]; 0.0625 kg/ha): 9.0
- herbicidal effect rating, ECHORC ([2]; 0.1250 kg/ha): 9.0
- herbicidal effect rating, ECHORC ([2]; 0.2500 kg/ha): 9.0
- herbicidal effect rating, MOOVA ([3]; 0.0313 kg/ha): 9.0
- herbicidal effect rating, MOOVA ([3]; 0.0625 kg/ha): 9.0
- herbicidal effect rating, MOOVA ([3]; 0.1250 kg/ha): 9.0
- herbicidal effect rating, MOOVA ([3]; 0.2500 kg/ha): 9.0
- herbicidal effect rating, CYPSE ([4]; 0.0313 kg/ha): 0.0
- herbicidal effect rating, CYPSE ([4]; 0.0625 kg/ha): 0.0
- herbicidal effect rating, CYPSE ([4]; 0.2500 kg/ha): 2.0
- herbicidal effect rating, SAGPY (Sagittaria pygmaea, L.; 0.0313 kg/ha): 0.0
- herbicidal effect rating, SAGPY (Sagittaria pygmaea, L.; 0.0625 kg/ha): 0.0
- herbicidal effect rating, SAGPY (Sagittaria pygmaea, L.; 0.1250 kg/ha): 2.0
- herbicidal effect rating, SAGPY (Sagittaria pygmaea, L.; 0.2500 kg/ha): 7.0
